According to patent publication US4782081A, “Compounds and methods useful for the synthesis of thromboxane A2” (priority 1986, dated 1988):
“And” between values parts separate entries of the source, which are not always exact repeats. Equal values may be shown once. “Also recorded” adds a separate entry of the source. Where a name gives a salt, the structure may show the parent alone.

Tests used:
[1] = system: platelets; experiment: inhibition of TXA2 S induced platelet aggregation; type: cell-based, human
[2] = indirect methods; refs (14), (15); listed as biologically generated material; cited from earlier work
[3] = 37° C., pH 7.4; refs (1,3); cited from earlier work
[4] = system: vascular tissue (rabbit aorta, pulmonary, mesenteric, celiac arteries and bovine coronary arteries); experiment: contraction of Krebs superfused vascular tissue; type: cell-based; settings: for contraction of vascular tissue / constriction of vascular tissue versus natural TXA2: rabbit aorta, pulmonary; for contraction of vascular tissue: mesenteric, celiac arteries and bovine coronary arteries; for constriction of vascular tissue versus natural TXA2: mesenteric and celiac arteries
Description: (§1) On most tissues 2-3 ng of TXA2 S was the threshold dose for contraction, generating more than 2 g of tension with rabbit aorta and 4 g of tension with bovine coronary arteries.

[5] = chemical stability and storage stability; type: physicochemical
Description: The salts of TXA2 were stable for more than one week when stored at -20 C. either as isolated solids or in basic methanol or tetrahydrofuran solution.
To a vile containing 1 mg (0.003 mmol) H1 in 0.050 ml (d4 -)methanol was immediately added 0.0025 ml of a 0.12M solution of NaOH(D) in (D)H2 O under nitrogen. […] Such solutions were diluted and used for biological testing and could be stored for at least a week at -20° C. without significant loss in biological activity.
(§2) TXA2 S was also prepared by saponifiction of H2 (X=H) with Me3 SiOK (10) in tetrahydrofuran and isolated as an amorphous solid by solvent evaporation.

[6] = system: rabbit mesenteric arteries; experiment: response of rabbit mesenteric arteries; type: cell-based
Description: as §1

[7] = system: vascular tissue (rabbit aorta, pulmonary, mesenteric, celiac arteries and bovine coronary arteries); settings: generated by platelets or a partially purified platelet enzyme; cited from earlier work
[8] = system: rabbit celiac arteries; experiment: response of rabbit celiac arteries; type: cell-based
Description: as §1

[9] = system: thromboxane synthetase or cyclooxygenase
[10] = system: human platelet rich plasma (PRP); experiment: aggregation of human platelet rich plasma (PRP); type: cell-based
From the text: (§3) TXA2 S at concentrations of 16-100 nanograms/ml caused a concentration-dependent aggregation of human platelet rich plasma (PRP). Irreversible aggregation occurred with 50-100 nanograms TXA2 S/ml for all cases examined. […] These comparative potencies concur with published data. […] The aggregatory effects of TXA2 S were confined to platelets.

[11] = system: human neutrophils; experiment: aggregation of human neutrophils; type: cell-based
[12] = half-life in Krebs solution at 37° C. (bioassay on vascular tissue); type: physicochemical; settings: leading to TXB2
Description: Radioimmunoassay determinations of hydrolyzed TXA2 yielded values of 84±21, 60±16, 39±11, and 25±8 picograms TXB2 (mean±S.D at 95% confidence, n=3) which correspond with predicted values of 125, 62, 31, and 15 picograms, respectively. The half-life of TXA2 S at 37° C. in Krebs solution measured by bioassay on vascular tissue was 30 seconds which compares very closely with previously reported half-lives for biologically generated material. (1, 12)

[13] = biological activity (biological properties of TXA2) in a variety of assays
Description: as §2

[14] = system: rabbit mesenteric arteries; settings: ref (19); cited from earlier work
[15] = system: rabbit celiac arteries; settings: ref (19); cited from earlier work
[16] = system: rabbit aorta; experiment: contraction of Krebs superfused rabbit aorta; type: cell-based; settings: threshold dose 2-3 ng
Description: as §1

[17] = system: leukotriene B4; experiment: stimulation of leukotriene B4 formation; type: cell-based, human; settings: 2 ug/ml
[18] = system: bovine coronary arteries; experiment: contraction of Krebs superfused bovine coronary arteries; type: cell-based; settings: threshold dose 2-3 ng
Description: as §1

[19] = in vitro; type: in vitro ADME; settings: human, plasma
From the text: as §3

For CCCCCCC=CC1C2CC(N=N2)C1CC=CCCCC(=O)O (stereo not drawn) [Compound U-51605, 9,11-diazo-prosta-5,13-dienoic acid], the TXA2-induced aggregation ([1]; inhibitor at 1-3 ug/ml) was “inhibited TXA2 -induced aggregation in a concentration-dependent manner”.

In the case of CCCCC[C@H](O)/C=C/[C@H]1O[C@H]2C[C@H](O2)[C@@H]1C/C=C\CCCC(=O)O [TXA2, thromboxane A2], the “half-life in plasma, biologically generated material” value [2] is listed as 3 minutes and 5-6 minutes, the “T1/2 in aqueous Krebs medium” value [3] is listed as 32 s and the “contraction of vascular tissue” value [4] is listed as “contracted all vascular tissue tested”. For the same molecule, the “hydrolysis to TXB2” value ([5]; aqueous high salt, neutral pH buffers) was “rapidly hydrolyzed to TXB2”, the “stability at high pH” value ([5]; high pH) was “appreciably enhanced at high pH” and the “response of rabbit mesenteric arteries” value [6] was “only constriction”. The vascular contracting activity [7] was “potent vaxcular contracting activity” and the “response of rabbit celiac arteries” value [8] was “only constriction”.

For CCCCCCC=CC1C2CC(NO2)C1CC=CCCCC(=O)O (stereo not drawn) [Compound U-54701, 9,11-iminoepoxy-prosta-5,13-dienoic acid], the “platelet aggregation induced by TXA2 S” value ([1]; inhibitor at 5-15 ug/ml) was “no effect”.

For CCCCCC(O)C=CC1OC2CC(O2)C1CC=CCCCC(=O)O (stereo not drawn) [sodium salt of A, Thromboxane A2 Sodium], the “resistance to inhibition by selective thromboxane synthetase or cyclooxygenase inhibitors versus natural TXA2” value [9] was “indistinguishable from natural TXA2”, the “comparative potency in aggregating human platelets versus natural TXA2” value [10] was “indistinguishable from natural TXA2” and the aggregation of neutrophils [11] was “not neutrophils”. The “constriction of vascular tissue versus natural TXA2” value [4] was “indistinguishable from natural TXA2”, the “half-life in Krebs medium/solution” value [12] was 30 s and the “storage without significant loss in biological activity” value ([5]; -20° C., methanol/water saponification solution) was “at least a week”. For the same molecule, the biological activity [13] was “marked activity”.

For CCCCCC1C=CC2OC3CC(O3)C2CC=CCCCC(=O)O1 (stereo not drawn) [Compound H2, 1,15-Anhydro Thromboxane A2], the biological activity [13] was “did not show the biological properties of TXA2; also recorded: biologically inactive”.

In the case of CCCCC[C@H](O)/C=C/[C@@H]1[C@@H](C/C=C\CCCC(=O)O)[C@@H]2C[C@H]1OO2 [PGH2], the “response of rabbit mesenteric arteries to PGH2” value [14] is given as “small, short-lived contraction, followed by larger, longer lasting relaxation” and the “response of rabbit celiac arteries to PGH2” value [15] is given as “small, short-lived contraction, followed by larger, longer lasting relaxation”.

For CCCCCC(O)C=CC1OC2CC(O2)C1CC=CCCCC(=O)O (stereo not drawn) [potassium salt of A, Thromboxane A2 Potassium], the “resistance to inhibition by selective thromboxane synthetase or cyclooxygenase inhibitors versus natural TXA2” value [9] was “indistinguishable from natural TXA2”, the “comparative potency in aggregating human platelets versus natural TXA2” value [10] was “indistinguishable from natural TXA2” and the aggregation of neutrophils [11] was “not neutrophils”. The “constriction of vascular tissue versus natural TXA2” value [4] was “indistinguishable from natural TXA2” and the “half-life in Krebs medium/solution” value [12] was 30 s.

For CCCCCC(O)C=CC1OC2CC(O2)C1CC=CCCCC(=O)O (stereo not drawn) [free acid], the “stability of free acid in aprotic solvents” value ([5]; deuterochloroform, elimination to the enol ether) was “underwent elimination to the corresponding enol ether over the course of several hours”.

For CCCCC[C@H](O)/C=C/[C@H]1O[C@H]2C[C@H](O2)[C@@H]1C/C=C\CCCC(=O)O [A, Thromboxane A2], the “biological assays versus platelet-derived TXA2” value [13] was “indistinguishable from platelet-derived TXA2”.

With CCCCC[C@H](O)/C=C/[C@H]1O[C@H]2C[C@H](O2)[C@@H]1C/C=C\CCCC(=O)O [TXA2 S, Thromboxane A2] the “concentration causing concentration-dependent aggregation of human PRP” value [10] was 16-100 nanograms/ml, the “potency relative to PGH2 at inducing aggregation of human PRP” value [10] was “approximately 10 times” and the “concentration causing irreversible aggregation” value ([10]; all cases examined) was 50-100 nanograms/ml. The “aggregation of human neutrophils” value ([11]; 2 ug/ml) was “did not aggregate human neutrophils”, the “potency versus biologically produced TXA2” value ([4]; TXA2 calculated from PGH2 originally in the incubation, assuming 100% conversion) was “compared well with the activity of biologically produced TXA2” and the “contraction of vascular tissue” value [4] was “contracted all vascular tissue tested”. For the same molecule, the half-life ([12]; krebs medium) was 30 s, the “tension generated, rabbit aorta” value [16] was “more than 2 g” and the “stimulation of formation of leukotriene B4” value [17] was “nor did it stimulate formation of leukotriene B4”. For the same molecule, the “storage without significant loss in activity” value ([5]; -20° C., basic saponification solutions) was “up to a week”, the “stability in basic saponification solutions” value ([5]; basic saponification solutions) was “relatively stable” and the “stability in neutral or acidic solutions” value ([5]; neutral or acidic solutions) was “rapid decomposition”. The “response of rabbit mesenteric arteries” value [6] was “only constriction”, the “tension generated, bovine coronary arteries” value [18] was > 4 g and the biological activity [13] was “did exhibit biological properties”. For the same molecule, the “biological activity after hydrolysis” value ([13]; 0.1M phosphate buffer, pH 7.4) was “eliminated its biological activity”, the half-life [19] was 234 s and the “response of rabbit celiac arteries” value [8] was “only constriction”.
